Laboratory results as given in ChEMBL document CHEMBL3045946, “Synthesis and biological activity studies of new hybrid molecules containing tryptamine moiety” (2012).
Active and inactive are the calls of the source. The rule behind the calls is not given here.

What was measured:
Saccharomyces cerevisiae = test: Antifungal activity against Saccharomyces cerevisiae RSKK 251 after 18 hr by agar well diffusion method; assay type: functional, organism-based
Candida albicans = test: Antifungal activity against Candida albicans ATCC 60193 after 18 hr by agar well diffusion method; assay type: functional, organism-based
Staphylococcus aureus [1] = test: Antibacterial activity against Staphylococcus aureus ATCC 25923 after 18 hr by agar well diffusion method; assay type: functional
[2] = system: Mycolicibacterium smegmatis; test: Antibacterial activity against Mycobacterium smegmatis ATCC 607 after 18 hr by agar well diffusion method; assay type: functional
Pseudomonas aeruginosa [3] = test: Antibacterial activity against Pseudomonas aeruginosa ATCC 43288 after 18 hr by agar well diffusion method; assay type: functional
Bacillus cereus [4] = test: Antibacterial activity against Bacillus cereus 702 Roma after 18 hr by agar well diffusion method; assay type: functional
Candida tropicalis = test: Antifungal activity against Candida tropicalis after 18 hr by agar well diffusion method; assay type: functional, organism-based
Enterococcus faecalis [5] = test: Antibacterial activity against Enterococcus faecalis ATCC 29212 after 18 hr by agar well diffusion method; assay type: functional
Bacillus cereus [6] = test: Antibacterial activity against Bacillus cereus 702 Roma at 10 mg after 18 hr by agar well diffusion method; assay type: functional; settings: read-out: IZ
Enterococcus faecalis [7] = test: Antibacterial activity against Enterococcus faecalis ATCC 29212 at 10 mg after 18 hr by agar well diffusion method; assay type: functional; settings: ATCC 29212, 18 h, read-out: IZ
Staphylococcus aureus [8] = test: Antibacterial activity against Staphylococcus aureus ATCC 25923 at 10 mg after 18 hr by agar well diffusion method; assay type: functional; settings: ATCC 25923, 18 h, read-out: IZ
Pseudomonas aeruginosa [9] = test: Antibacterial activity against Pseudomonas aeruginosa ATCC 43288 at 10 mg after 18 hr by agar well diffusion method; assay type: functional; settings: ATCC 43288, 18 h, read-out: IZ

## O=c1n(Cc2nnc(S)o2)nc(Cc2ccc(Cl)cc2)n1CCc1c[nH]c2ccccc12
Saccharomyces cerevisiae
  Activity: inactive
Candida albicans
  Activity: inactive
Staphylococcus aureus [1]
  inhibition zone (IZ): 8 mm
[2]
  Activity: inactive
Pseudomonas aeruginosa [3]
  Activity: inactive
Bacillus cereus [4]
  inhibition zone (IZ): 6 mm
Candida tropicalis
  Activity: inactive
Enterococcus faecalis [5]
  inhibition zone (IZ): 10 mm

## O=C(Cn1nc(Cc2ccc(Cl)cc2)n(CCc2c[nH]c3ccccc23)c1=O)NNS(=O)(=O)c1ccc(Br)cc1
Saccharomyces cerevisiae
  Activity: inactive
Candida albicans
  Activity: inactive
Staphylococcus aureus [1]
  inhibition zone (IZ): 8 mm
[2]
  inhibition zone (IZ): 9 mm
Pseudomonas aeruginosa [3]
  inhibition zone (IZ): 12 mm
Bacillus cereus [4]
  inhibition zone (IZ): 12 mm
Candida tropicalis
  Activity: inactive
Enterococcus faecalis [5]
  Activity: inactive

## O=C(Cn1nc(Cc2ccc(Cl)cc2)n(CCc2c[nH]c3ccccc23)c1=O)NNC(=O)NCc1ccccc1
Saccharomyces cerevisiae
  Activity: inactive
Candida albicans
  Activity: inactive
Staphylococcus aureus [1]
  Activity: inactive
[2]
  Activity: inactive
Pseudomonas aeruginosa [3]
  Activity: inactive
Bacillus cereus [4]
  Activity: inactive
Candida tropicalis
  Activity: inactive
Enterococcus faecalis [5]
  Activity: inactive

## Cc1ccc(Cc2nn(Cc3n[nH]c(=O)n3Cc3ccccc3)c(=O)n2CCc2c[nH]c3ccccc23)cc1
Saccharomyces cerevisiae
  Activity: inactive
Candida albicans
  Activity: inactive
Staphylococcus aureus [1]
  Activity: inactive
[2]
  inhibition zone (IZ): 10 mm
Pseudomonas aeruginosa [3]
  inhibition zone (IZ): 6 mm
Bacillus cereus [4]
  inhibition zone (IZ): 7 mm
Candida tropicalis
  Activity: inactive
Enterococcus faecalis [5]
  Activity: inactive

## COc1ccc(/C=N/NC(=O)Cn2nc(Cc3ccc(C)cc3)n(CCc3c[nH]c4ccccc34)c2=O)cc1
Saccharomyces cerevisiae
  Activity: inactive
Candida albicans
  Activity: inactive
Staphylococcus aureus [1]
  Activity: inactive
[2]
  Activity: inactive
Pseudomonas aeruginosa [3]
  Activity: inactive
Bacillus cereus [4]
  Activity: inactive
Candida tropicalis
  Activity: inactive
Enterococcus faecalis [5]
  Activity: inactive

## O=c1[nH]nc(Cn2nc(Cc3ccc(Cl)cc3)n(CCc3c[nH]c4ccccc34)c2=O)n1Cc1ccccc1
Saccharomyces cerevisiae
  Activity: inactive
Candida albicans
  Activity: inactive
Staphylococcus aureus [1]
  Activity: inactive
[2]
  inhibition zone (IZ): 10 mm
Pseudomonas aeruginosa [3]
  inhibition zone (IZ): 10 mm
Bacillus cereus [4]
  inhibition zone (IZ): 12 mm
Candida tropicalis
  Activity: inactive
Enterococcus faecalis [5]
  Activity: inactive

## Cc1ccc(Cc2nn(CC(=O)NNS(=O)(=O)c3ccc(Br)cc3)c(=O)n2CCc2c[nH]c3ccccc23)cc1
Saccharomyces cerevisiae
  Activity: inactive
Candida albicans
  Activity: inactive
Staphylococcus aureus [1]
  Activity: inactive
[2]
  inhibition zone (IZ): 7 mm
Pseudomonas aeruginosa [3]
  inhibition zone (IZ): 10 mm
Bacillus cereus [4]
  inhibition zone (IZ): 8 mm
Candida tropicalis
  Activity: inactive
Enterococcus faecalis [5]
  Activity: inactive

## Nn1c(S)nnc1Cn1nc(Cc2ccc(Cl)cc2)n(CCc2c[nH]c3ccccc23)c1=O
Saccharomyces cerevisiae
  Activity: inactive
Candida albicans
  Activity: inactive
Staphylococcus aureus [1]
  Activity: inactive
[2]
  inhibition zone (IZ): 7 mm
Pseudomonas aeruginosa [3]
  Activity: inactive
Bacillus cereus [4]
  inhibition zone (IZ): 7 mm
Candida tropicalis
  Activity: inactive
Enterococcus faecalis [5]
  Activity: inactive

## CN[C@@H]1[C@H](O[C@H]2[C@H](O[C@H]3[C@H](O)[C@@H](O)[C@H](N=C(N)N)[C@@H](O)[C@@H]3N=C(N)N)O[C@@H](C)[C@]2(O)C=O)O[C@@H](CO)[C@H](O)[C@H]1O [STREPTOMYCIN]
[2]
  inhibition zone (IZ): 35 mm

## COc1ccc(/C=N/n2c(S)nnc2Cn2nc(Cc3ccc(C)cc3)n(CCc3c[nH]c4ccccc34)c2=O)cc1
Saccharomyces cerevisiae
  Activity: inactive
Candida albicans
  Activity: inactive
Staphylococcus aureus [1]
  inhibition zone (IZ): 11 mm
[2]
  inhibition zone (IZ): 6 mm
Pseudomonas aeruginosa [3]
  inhibition zone (IZ): 12 mm
Bacillus cereus [4]
  inhibition zone (IZ): 12 mm
Candida tropicalis
  Activity: inactive
Enterococcus faecalis [5]
  Activity: inactive

## Cc1ccc(Cc2nn(CC(=O)NNC(=S)Nc3ccccc3)c(=O)n2CCc2c[nH]c3ccccc23)cc1
Saccharomyces cerevisiae
  Activity: inactive
Candida albicans
  Activity: inactive
Staphylococcus aureus [1]
  Activity: inactive
[2]
  Activity: inactive
Pseudomonas aeruginosa [3]
  Activity: inactive
Bacillus cereus [4]
  Activity: inactive
Candida tropicalis
  Activity: inactive
Enterococcus faecalis [5]
  Activity: inactive

## O=C(Cn1nc(Cc2ccc(Cl)cc2)n(CCc2c[nH]c3ccccc23)c1=O)NNS(=O)(=O)c1ccc(Cl)cc1
Saccharomyces cerevisiae
  Activity: inactive
Candida albicans
  Activity: inactive
Staphylococcus aureus [1]
  inhibition zone (IZ): 11 mm
[2]
  inhibition zone (IZ): 14 mm
Pseudomonas aeruginosa [3]
  inhibition zone (IZ): 12 mm
Bacillus cereus [4]
  inhibition zone (IZ): 12 mm
Candida tropicalis
  Activity: inactive

## CC1(C)S[C@@H]2[C@H](NC(=O)[C@H](N)c3ccccc3)C(=O)N2[C@H]1C(=O)O [AMPICILLIN]
Bacillus cereus [6]
  zone of inhibition at 10000 µg/disc: 15 mm
Enterococcus faecalis [7]
  zone of inhibition at 10000 µg/disc: 10 mm
Staphylococcus aureus [8]
  zone of inhibition at 10000 µg/disc: 35 mm
Pseudomonas aeruginosa [9]
  zone of inhibition at 10000 µg/disc: 18 mm

## COc1ccc(/C=N/NC(=O)Cn2nc(Cc3ccc(Cl)cc3)n(CCc3c[nH]c4ccccc34)c2=O)cc1
Saccharomyces cerevisiae
  Activity: inactive
Candida albicans
  Activity: inactive
Staphylococcus aureus [1]
  Activity: inactive
[2]
  Activity: inactive
Pseudomonas aeruginosa [3]
  Activity: inactive
Bacillus cereus [4]
  Activity: inactive
Candida tropicalis
  Activity: inactive
Enterococcus faecalis [5]
  Activity: inactive

## Cc1ccc(Cc2nn(CC(=O)N/N=C/c3ccc[nH]3)c(=O)n2CCc2c[nH]c3ccccc23)cc1
Saccharomyces cerevisiae
  Activity: inactive
Candida albicans
  Activity: inactive
Staphylococcus aureus [1]
  Activity: inactive
[2]
  Activity: inactive
Pseudomonas aeruginosa [3]
  Activity: inactive
Bacillus cereus [4]
  Activity: inactive
Candida tropicalis
  Activity: inactive
Enterococcus faecalis [5]
  Activity: inactive

## Cc1ccc(Cc2nn(CC(=O)NNS(=O)(=O)c3ccc(Cl)cc3)c(=O)n2CCc2c[nH]c3ccccc23)cc1
Saccharomyces cerevisiae
  Activity: inactive
Candida albicans
  Activity: inactive
Staphylococcus aureus [1]
  inhibition zone (IZ): 7 mm
[2]
  inhibition zone (IZ): 9 mm
Pseudomonas aeruginosa [3]
  inhibition zone (IZ): 10 mm
Bacillus cereus [4]
  inhibition zone (IZ): 10 mm
Candida tropicalis
  Activity: inactive
Enterococcus faecalis [5]
  Activity: inactive

## Cc1ccc(Cc2nn(CC(=O)N/N=C/c3ccccn3)c(=O)n2CCc2c[nH]c3ccccc23)cc1
Saccharomyces cerevisiae
  Activity: inactive
Candida albicans
  Activity: inactive
Staphylococcus aureus [1]
  Activity: inactive
[2]
  Activity: inactive
Pseudomonas aeruginosa [3]
  Activity: inactive
Bacillus cereus [4]
  Activity: inactive
Candida tropicalis
  Activity: inactive
Enterococcus faecalis [5]
  Activity: inactive

## Cc1ccc(Cc2nn(Cc3nnc(S)n3N)c(=O)n2CCc2c[nH]c3ccccc23)cc1
Saccharomyces cerevisiae
  Activity: inactive
Candida albicans
  Activity: inactive
Staphylococcus aureus [1]
  Activity: inactive
[2]
  inhibition zone (IZ): 6 mm
Pseudomonas aeruginosa [3]
  Activity: inactive
Bacillus cereus [4]
  inhibition zone (IZ): 7 mm
Candida tropicalis
  Activity: inactive
Enterococcus faecalis [5]
  Activity: inactive

## O=C(Cn1nc(Cc2ccc(Cl)cc2)n(CCc2c[nH]c3ccccc23)c1=O)N/N=C/c1ccc[nH]1
Saccharomyces cerevisiae
  Activity: inactive
Candida albicans
  Activity: inactive
Staphylococcus aureus [1]
  Activity: inactive
[2]
  inhibition zone (IZ): 6 mm
Pseudomonas aeruginosa [3]
  Activity: inactive
Bacillus cereus [4]
  Activity: inactive
Candida tropicalis
  Activity: inactive
Enterococcus faecalis [5]
  Activity: inactive

## Cc1ccc(Cc2nn(Cc3nnc(S)o3)c(=O)n2CCc2c[nH]c3ccccc23)cc1
Saccharomyces cerevisiae
  Activity: inactive
Candida albicans
  Activity: inactive
Staphylococcus aureus [1]
  inhibition zone (IZ): 12 mm
[2]
  inhibition zone (IZ): 8 mm
Pseudomonas aeruginosa [3]
  Activity: inactive
Bacillus cereus [4]
  inhibition zone (IZ): 8 mm
Candida tropicalis
  Activity: inactive
Enterococcus faecalis [5]
  inhibition zone (IZ): 12 mm

## O=C(Cn1nc(Cc2ccc(Cl)cc2)n(CCc2c[nH]c3ccccc23)c1=O)N/N=C/Cc1ccccc1
Saccharomyces cerevisiae
  Activity: inactive
Candida albicans
  Activity: inactive
Staphylococcus aureus [1]
  Activity: inactive
[2]
  Activity: inactive
Pseudomonas aeruginosa [3]
  Activity: inactive
Bacillus cereus [4]
  Activity: inactive
Candida tropicalis
  Activity: inactive
Enterococcus faecalis [5]
  Activity: inactive

## Cc1ccc(Cc2nn(CC(=O)N/N=c3\scc(-c4ccc(Cl)cc4)n3-c3ccccc3)c(=O)n2CCc2c[nH]c3ccccc23)cc1
Saccharomyces cerevisiae
  Activity: inactive
Candida albicans
  Activity: inactive
Staphylococcus aureus [1]
  Activity: inactive
[2]
  Activity: inactive
Pseudomonas aeruginosa [3]
  Activity: inactive
Bacillus cereus [4]
  Activity: inactive
Candida tropicalis
  Activity: inactive
Enterococcus faecalis [5]
  Activity: inactive

## O=C(Cn1nc(Cc2ccc(Cl)cc2)n(CCc2c[nH]c3ccccc23)c1=O)N/N=c1\occ(-c2ccc(Cl)cc2)n1Cc1ccccc1
Saccharomyces cerevisiae
  Activity: inactive
Candida albicans
  Activity: inactive
Staphylococcus aureus [1]
  inhibition zone (IZ): 5 mm
[2]
  Activity: inactive
Pseudomonas aeruginosa [3]
  Activity: inactive
Bacillus cereus [4]
  inhibition zone (IZ): 6 mm
Candida tropicalis
  Activity: inactive
Enterococcus faecalis [5]
  Activity: inactive
